# Reference: the METLIN SMRT retention time set (Domingo-Almenara et al. 2019)
# Test: gradient 5% acetonitrile 3 min, to 50% in 2 min, to 85% in 15 min, held 3 min, 100 µL/min
# Conditions: column: Zorbax Extend-C18 2.1 x 50 mm; eluents: water / acetonitrile, 0.1% formic acid
# How it was run: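 Standards, all pure, were combined into mixtures of ~100 molecules and run at 100 μL/min on a Zorbax Extend-C18 column (2.1 × 50 mm, 1.8 μm) with water and acetonitrile, each containing 0.1% formic acid. A coupled quadrupole time-of-flight mass spectrometer operated in positive and negative ionization mode. Retention time values come from computationally picked adduct peaks, each inspected manually.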
row,RP-LC retention time,SMILES
1,1050 s,c1ccc(Sc2ncnc3ccccc23)cc1
2,810 s,Cc1ccc(C2=NC3(CCN(C(=O)c4cccs4)CC3)ON2)cc1
3,966 s,Cc1cc(C)cc(NC(=O)Cc2csc3nc(-c4ccc(C)c(C)c4)cn23)c1
4,638 s,O=C(NCCC1=CCCCC1)C1CCN(c2ccncc2)CC1
5,604 s,CC(C)NC(=O)N1CCCC(Cn2c(C3CC3)nc3cccnc32)C1 (centres undefined)
6,593 s,CSc1nc(N2CCCC2)c2cnn(CCNC(=O)c3ccc(=O)[nH]c3)c2n1
7,602 s,CN(C)C[C@@H]1CN(S(C)(=O)=O)C[C@H]1NC(=O)CC1=CCCCC1
8,637 s,CCCCNc1nnc(-c2nnc(C)o2)c2ccccc12
9,1100 s,Cc1ccc2oc(-c3nnc(C(=O)NCc4ccc(C)o4)o3)c(C)c2c1
10,876 s,O=C(CN1C(=O)CC(c2cccs2)=Nc2ccccc21)NCc1ccccc1
11,784 s,CNC(=O)Nc1ccc(OC)c(NC(=O)NC(=O)c2cc(F)c(F)cc2Cl)c1
12,1010 s,O=C(Nc1cccc(OCc2nnc(-c3ccccc3)o2)c1)C1COc2ccccc2O1 (centres undefined)
13,716 s,Cc1ccc(-n2ncc3c(C)nnc(SCC(=O)N4CCC(C)CC4)c32)cc1C
14,578 s,O=C(NCC(c1ccsc1)N1CCCC1)Nc1ccc(Cl)cc1 (centres undefined)
15,866 s,O=C(NCCc1c[nH]c2ccccc12)C1COc2ccccc2O1 (centres undefined)
16,666 s,COCCC1CCN(C(=O)CN(C)C(=O)c2ccc(C#N)cc2)CC1
17,624 s,O=C1NCC(=O)N2CC3(CCN(C(=O)C4CCCCC4)CC3)CC12 (centres undefined)
18,1240 s,CCOC(=O)c1ccccc1NC(=O)c1nc(SC)ncc1Cl
19,595 s,CCOC(=O)c1noc2nc(C)nc(NCC3CCN(Cc4ccccc4F)CC3)c12
20,798 s,COc1ccc(-c2noc(CN3N=NC4C(=O)N(c5ccc(OC)c(OC)c5)C(=O)C43)n2)cc1OC (centres undefined)
21,739 s,Cc1cc(C)c2c(N)c(C(=O)c3ccccn3)sc2n1
22,899 s,O=C(Cn1ccn2nc(-c3ccc(F)cc3)c(CO)c2c1=O)N1CCCc2ccccc21

row,RP-LC retention time,SMILES
1,834 s,COc1cc(/C=C2\CCCN([C@@H](C)c3ccc(F)cc3)C2=O)ccc1-n1cnc(C)c1
2,680 s,COc1ccc(CNC(=O)c2ccc3[nH]c4c(c3c2)CN(C(C)=O)CC4)c(OC)c1
3,872 s,CCC1Oc2ccc(S(=O)(=O)N3CCC(C(=O)N(C)Cc4ccccc4)CC3)cc2NC1=O (centres undefined)
4,566 s,CC(=O)c1cccc(NC(=O)N2CCN(c3nc4ccccc4n3C)CC2)c1
5,554 s,CCN(CC)CCNC(=O)c1ccc2c(c1)N(S(C)(=O)=O)CC2
6,954 s,COc1cc(OC)c(NC(=O)CN2C(=O)C(C)(C)c3ccccc32)cc1Cl
7,1240 s,CCOC(=O)c1ccc2nc(C(F)(F)F)nc(NCCc3ccc(OC)cc3)c2c1
8,757 s,O=C(O[C@@H]1CN2CCC1CC2)N1CCc2ccccc2C1c1ccccc1 (some centres undefined)
9,754 s,O=C(NCc1ccc(F)cc1)C1CCCN(c2ccc3cc(S(=O)(=O)N4CCCC4)ccc3n2)C1 (centres undefined)
10,819 s,COc1ccc(C(=O)N2CCC3(CC2)N=C(c2ccc(Cl)cc2)NO3)cc1F
11,1220 s,COc1ccc(Cl)cc1NC(=O)c1sc(-c2cn(C)c3ncccc23)nc1C
12,702 s,O=C(Cn1nc2ccc(C(=O)NCc3ccccc3)cn2c1=O)NC1CCCC1
13,555 s,Cc1nc(C)c(C(=O)N2CCC3(CC2)CCC(O)(CN(C)C)CC3)s1
14,637 s,COc1ccc(NC(=O)C2CCCN(c3cc(=O)n(C)c(=O)n3C)C2)cc1OC (centres undefined)
15,1070 s,O=C(NCc1ccccc1)Nc1ccc(-c2nc(-c3ccccc3)co2)cc1
16,596 s,COC1CCN(CC2CCCCCN2C(=O)c2ccoc2)CC1 (centres undefined)
17,955 s,CCc1nc(-c2csc(S(=O)(=O)N3CCC(C(=O)N4CCCCCC4)CC3)c2)no1
18,747 s,O=C(Nc1ccc2c(c1)OCO2)C1CCCN(c2nnc3ccc(Cl)cn23)C1 (centres undefined)
19,1130 s,Cc1cc(C)cc(-c2nnc(Cc3nc(-c4ccccc4)no3)o2)c1
20,1210 s,Cc1cccn2c(NCc3ccccc3)c(-c3ccccc3OC(=O)C(C)Cl)nc12 (centres undefined)
21,760 s,Cc1ccc(-c2nc(-c3ccc4c(c3)nnn4CCN3CCOCC3)no2)cc1C
22,885 s,O=C(c1ccc(-c2ccc3c(c2)CCN3S(=O)(=O)c2ccccc2)cc1)N1CCOCC1
